{"source": "patent US20100130604A1", "about": "“USE OF ROSMARINIC ACID IN MANUFACTURE OF MEDICAMENTS FOR TREATING OR PREVENTING HEPATIC AND RENAL DISEASES” (SHANGDONG LUYE NATURAL DRUG RESEARCH AND DEVELOPMENT CO., …, priority 2006, published 2010)", "assay_type_in_all_cases": "in vivo, Sprague Dawley rats", "key": {"CRF rats [1]": {"tested_on": "CRF rats", "experiment": "CRF induced by 5/6 nephrectomy in rats", "method": "130 rats were randomly divided into 13 groups, with 10 animals in each group, namely, a normal control group, a model group, methylprednisolone p.o. Group at 12 mg/kg, RA i.v. groups at 2.5 mg/kg, 5 mg/kg, 25 mg/kg, 75 mg/kg, and 150 mg/kg of RA, and RA p.o. groups at 5 mg/kg, 10 mg/kg, 50 mg/kg, 150 mg/kg, and 300 mg/kg of RA. Apart from the normal control group, all other rats were induced to CRF by cutting off 5/6 of the kidneys. 2/3 of the left kidney was removed in the first operation, and one week later the right kidney in the second operation. Dosing started one week after the second operation via p.o. or i.p. routes. Blood was collected from eyepit at week 4 and week 8 to determine creatinine and urea nitrogen levels in sera. 5 animals in each group were sacrificed at week 4 and […] were sacrificed at the end of the study. Pathological changes in renal function were observed through HE and PAS staining of histopathological sections."}, "CRF rats [2]": {"tested_on": "CRF rats", "experiment": "CRF induced by 5/6 nephrectomy in rats", "remark": "listed apart in the source"}, "[3]": {"tested_on": "rats with diabetic nephropathy", "experiment": "Diabetic nephropathy in rats (left nephrectomy + streptozocin)", "details": "8 weeks", "method": "After 1 week-long acclimation period, animals were anaesthetised with 10% chloral hydrate (0.35 mL/100 g, i.p.) and nephrectomy was exercised to the left kidney. One week later, a single dose of 1% of streptozocin solution was i.v. injected to all animals at 60 mg/kg. After 72h, blood was collected from eyepit to test blood glucose level with the above-mentioned kit. The model was considered successful when blood glucose level >16.7 mmol/L. When the model is established, 130 rats were randomly divided into 13 groups, with 10 animals in each group, namely, a normal control group, a model group, benzanapril p.o. Group at 10 mg/kg, RA i.v. groups at 2.5 mg/kg, 5 mg/kg, 25 mg/kg, 75 mg/kg, and 150 mg/kg of RA, and RA p.o. groups at 5 mg/kg, 10 mg/kg, 50 mg/kg, 150 mg/kg, and 300 mg/kg of RA. The drugs were administered once every day. Blood was collected from eyepit at week 8 and week 16 to determine serum levels of creatinine and urea nitrogen. Urinary protein excretion within 24 hours was also studied. The animals were sacrificed 24 hours after the last dose and kidney removed for histopathological examination."}}, "data": [{"smiles": "O=C(/C=C/c1ccc(O)c(O)c1)O[C@H](Cc1ccc(O)c(O)c1)C(=O)O", "note": "[RA, R(+)2-{[3-(3,4-dihydroxylphenyl-(oxo-2-propenyl)oxy]3,4-dihydroxylphenylpropionic acid]}]", "values": [{"measurement": "Serum urea nitrogen", "setting": "CRF rats [1]; 4 weeks, p.o. 5 mg/kg", "value": "20.21 ± 2.22", "unit": "mg/dL"}, {"measurement": "Serum urea nitrogen", "setting": "CRF rats [1]; 4 weeks, p.o. 50 mg/kg", "value": "19.95 ± 2.20", "unit": "mg/dL"}, {"measurement": "Serum urea nitrogen", "setting": "CRF rats [1]; 8 weeks, p.o. 5 mg/kg", "value": "25.98 ± 2.72", "unit": "mg/dL"}, {"measurement": "Serum creatinine", "setting": "CRF rats [1]; 8 weeks, p.o. 50 mg/kg", "value": "1.92 ± 0.32", "unit": "mg/dL"}, {"measurement": "Serum creatinine", "setting": "CRF rats [1]; 8 weeks, p.o. 300 mg/kg", "value": "1.74 ± 0.36", "unit": "mg/dL"}, {"measurement": "renal pathological changes (HE, PAS)", "setting": "CRF rats [1]; week 8", "value": "alleviated by RA treatment in a dose-dependent manner"}, {"measurement": "Serum creatinine", "setting": "CRF rats [2]; 4 weeks, i.v. 2.5 mg/kg", "value": "1.32 ± 0.18", "unit": "mg/dL"}, {"measurement": "Serum urea nitrogen", "setting": "CRF rats [2]; 4 weeks, i.v. 2.5 mg/kg", "value": "21.12 ± 2.40", "unit": "mg/dL"}, {"measurement": "Serum creatinine", "setting": "CRF rats [2]; 4 weeks, i.v. 5 mg/kg", "value": "1.29 ± 0.31", "unit": "mg/dL"}, {"measurement": "Serum urea nitrogen", "setting": "CRF rats [2]; 4 weeks, i.v. 5 mg/kg", "value": "16.90 ± 4.09", "unit": "mg/dL"}, {"measurement": "Serum creatinine", "setting": "CRF rats [2]; 4 weeks, i.v. 25 mg/kg", "value": "1.12 ± 0.24", "unit": "mg/dL"}, {"measurement": "Serum urea nitrogen", "setting": "CRF rats [2]; 4 weeks, i.v. 25 mg/kg", "value": "14.63 ± 3.25", "unit": "mg/dL"}, {"measurement": "Serum creatinine", "setting": "CRF rats [2]; 4 weeks, i.v. 75 mg/kg", "value": "1.02 ± 0.19", "unit": "mg/dL"}, {"measurement": "Serum urea nitrogen", "setting": "CRF rats [2]; 4 weeks, i.v. 75 mg/kg", "value": "13.39 ± 2.45", "unit": "mg/dL"}, {"measurement": "Serum creatinine", "setting": "CRF rats [2]; 4 weeks, i.v. 150 mg/kg", "value": "1.01 ± 0.33", "unit": "mg/dL"}, {"measurement": "Serum urea nitrogen", "setting": "CRF rats [2]; 4 weeks, i.v. 150 mg/kg", "value": "12.85 ± 3.88", "unit": "mg/dL"}, {"measurement": "Serum creatinine", "setting": "CRF rats [2]; 4 weeks, p.o. 5 mg/kg", "value": "1.55 ± 0.16", "unit": "mg/dL"}, {"measurement": "Serum creatinine", "setting": "CRF rats [2]; 4 weeks, p.o. 10 mg/kg", "value": "1.42 ± 0.24", "unit": "mg/dL"}, {"measurement": "Serum urea nitrogen", "setting": "CRF rats [2]; 4 weeks, p.o. 10 mg/kg", "value": "18.60 ± 3.11", "unit": "mg/dL"}, {"measurement": "Serum creatinine", "setting": "CRF rats [2]; 4 weeks, p.o. 50 mg/kg", "value": "1.53 ± 0.15", "unit": "mg/dL"}, {"measurement": "Serum creatinine", "setting": "CRF rats [2]; 4 weeks, p.o. 150 mg/kg", "value": "1.30 ± 0.22", "unit": "mg/dL"}, {"measurement": "Serum urea nitrogen", "setting": "CRF rats [2]; 4 weeks, p.o. 150 mg/kg", "value": "17.01 ± 3.95", "unit": "mg/dL"}, {"measurement": "Serum creatinine", "setting": "CRF rats [2]; 4 weeks, p.o. 300 mg/kg", "value": "1.29 ± 0.28", "unit": "mg/dL"}, {"measurement": "Serum urea nitrogen", "setting": "CRF rats [2]; 4 weeks, p.o. 300 mg/kg", "value": "16.76 ± 4.30", "unit": "mg/dL"}, {"measurement": "Serum creatinine", "setting": "CRF rats [2]; 8 weeks, i.v. 2.5 mg/kg", "value": "1.89 ± 0.22", "unit": "mg/dL"}, {"measurement": "Serum urea nitrogen", "setting": "CRF rats [2]; 8 weeks, i.v. 2.5 mg/kg", "value": "22.15 ± 3.09", "unit": "mg/dL"}, {"measurement": "Serum creatinine", "setting": "CRF rats [2]; 8 weeks, i.v. 5 mg/kg", "value": "1.75 ± 0.37", "unit": "mg/dL"}, {"measurement": "Serum urea nitrogen", "setting": "CRF rats [2]; 8 weeks, i.v. 5 mg/kg", "value": "21.73 ± 5.26", "unit": "mg/dL"}, {"measurement": "Serum creatinine", "setting": "CRF rats [2]; 8 weeks, i.v. 25 mg/kg", "value": "1.51 ± 0.32", "unit": "mg/dL"}, {"measurement": "Serum urea nitrogen", "setting": "CRF rats [2]; 8 weeks, i.v. 25 mg/kg", "value": "19.25 ± 3.19", "unit": "mg/dL"}, {"measurement": "Serum creatinine", "setting": "CRF rats [2]; 8 weeks, i.v. 75 mg/kg", "value": "1.39 ± 0.26", "unit": "mg/dL"}, {"measurement": "Serum urea nitrogen", "setting": "CRF rats [2]; 8 weeks, i.v. 75 mg/kg", "value": "15.07 ± 3.45", "unit": "mg/dL"}, {"measurement": "Serum creatinine", "setting": "CRF rats [2]; 8 weeks, i.v. 150 mg/kg", "value": "1.37 ± 0.44", "unit": "mg/dL"}, {"measurement": "Serum urea nitrogen", "setting": "CRF rats [2]; 8 weeks, i.v. 150 mg/kg", "value": "14.85 ± 3.88", "unit": "mg/dL"}, {"measurement": "Serum creatinine", "setting": "CRF rats [2]; 8 weeks, p.o. 5 mg/kg", "value": "2.09 ± 0.22", "unit": "mg/dL"}, {"measurement": "Serum creatinine", "setting": "CRF rats [2]; 8 weeks, p.o. 10 mg/kg", "value": "2.06 ± 0.21", "unit": "mg/dL"}, {"measurement": "Serum urea nitrogen", "setting": "CRF rats [2]; 8 weeks, p.o. 10 mg/kg", "value": "25.65 ± 2.57", "unit": "mg/dL"}, {"measurement": "Serum urea nitrogen", "setting": "CRF rats [2]; 8 weeks, p.o. 50 mg/kg", "value": "23.91 ± 4.00", "unit": "mg/dL"}, {"measurement": "Serum creatinine", "setting": "CRF rats [2]; 8 weeks, p.o. 150 mg/kg", "value": "1.76 ± 0.30", "unit": "mg/dL"}, {"measurement": "Serum urea nitrogen", "setting": "CRF rats [2]; 8 weeks, p.o. 150 mg/kg", "value": "21.96 ± 3.95", "unit": "mg/dL"}, {"measurement": "Serum urea nitrogen", "setting": "CRF rats [2]; 8 weeks, p.o. 300 mg/kg", "value": "20.76 ± 5.50", "unit": "mg/dL"}, {"measurement": "serum creatinine and urea nitrogen levels vs model group", "setting": "CRF rats [2]; i.v. 2.5, 5, 25, 75, 150 mg/kg, p.o. 5, 10, 50, 150, 300 mg/kg", "value": "can all significantly reduce serum creatinine and urea nitrogen levels"}, {"measurement": "renal pathological changes (HE, PAS)", "setting": "CRF rats [2]; week 4", "value": "alleviated in RA treated animals in a dose-dependent manner"}, {"measurement": "24 h urinary protein excretion", "setting": "[3]; i.v. 2.5 mg/kg", "value": "20.29 ± 2.21", "unit": "mg/24 h"}, {"measurement": "Blood glucose", "setting": "[3]; i.v. 2.5 mg/kg", "value": "21.23 ± 5.66", "unit": "mmol/L"}, {"measurement": "Serum urea nitrogen", "setting": "[3]; i.v. 2.5 mg/kg", "value": "18.01 ± 1.62", "unit": "mg/dL"}, {"measurement": "24 h urinary protein excretion", "setting": "[3]; i.v. 5 mg/kg", "value": "19.19 ± 2.15", "unit": "mg/24 h"}, {"measurement": "Blood glucose", "setting": "[3]; i.v. 5 mg/kg", "value": "21.02 ± 6.14", "unit": "mmol/L"}, {"measurement": "Serum urea nitrogen", "setting": "[3]; i.v. 5 mg/kg", "value": "17.91 ± 1.80", "unit": "mg/dL"}, {"measurement": "24 h urinary protein excretion", "setting": "[3]; i.v. 25 mg/kg", "value": "17.59 ± 2.12", "unit": "mg/24 h"}, {"measurement": "Blood glucose", "setting": "[3]; i.v. 25 mg/kg", "value": "21.15 ± 5.74", "unit": "mmol/L"}, {"measurement": "Serum urea nitrogen", "setting": "[3]; i.v. 25 mg/kg", "value": "15.42 ± 3.36", "unit": "mg/dL"}, {"measurement": "24 h urinary protein excretion", "setting": "[3]; i.v. 75 mg/kg", "value": "16.78 ± 2.52", "unit": "mg/24 h"}, {"measurement": "Blood glucose", "setting": "[3]; i.v. 75 mg/kg", "value": "21.03 ± 4.74", "unit": "mmol/L"}, {"measurement": "Serum urea nitrogen", "setting": "[3]; i.v. 75 mg/kg", "value": "14.76 ± 2.19", "unit": "mg/dL"}, {"measurement": "24 h urinary protein excretion", "setting": "[3]; i.v. 150 mg/kg", "value": "16.39 ± 2.25", "unit": "mg/24 h"}, {"measurement": "Blood glucose", "setting": "[3]; i.v. 150 mg/kg", "value": "21.23 ± 5.54", "unit": "mmol/L"}, {"measurement": "Serum urea nitrogen", "setting": "[3]; i.v. 150 mg/kg", "value": "13.87 ± 1.75", "unit": "mg/dL"}, {"measurement": "24 h urinary protein excretion", "setting": "[3]; p.o. 5 mg/kg", "value": "20.59 ± 2.34", "unit": "mg/24 h"}, {"measurement": "Blood glucose", "setting": "[3]; p.o. 5 mg/kg", "value": "21.23 ± 6.36", "unit": "mmol/L"}, {"measurement": "Serum urea nitrogen", "setting": "[3]; p.o. 5 mg/kg", "value": "19.37 ± 3.85", "unit": "mg/dL"}, {"measurement": "24 h urinary protein excretion", "setting": "[3]; p.o. 10 mg/kg", "value": "19.11 ± 2.19", "unit": "mg/24 h"}]}]}
